Biological target: T1, S769N PfATP6 (Plasmodium falciparum, UniProt Q08853, S769N)
T1 construct: expressed in transfected cells; host or cells: Saccharomyces cerevisiae K667-derived strain
T1 sequence (Q08853 1-1228 S769N): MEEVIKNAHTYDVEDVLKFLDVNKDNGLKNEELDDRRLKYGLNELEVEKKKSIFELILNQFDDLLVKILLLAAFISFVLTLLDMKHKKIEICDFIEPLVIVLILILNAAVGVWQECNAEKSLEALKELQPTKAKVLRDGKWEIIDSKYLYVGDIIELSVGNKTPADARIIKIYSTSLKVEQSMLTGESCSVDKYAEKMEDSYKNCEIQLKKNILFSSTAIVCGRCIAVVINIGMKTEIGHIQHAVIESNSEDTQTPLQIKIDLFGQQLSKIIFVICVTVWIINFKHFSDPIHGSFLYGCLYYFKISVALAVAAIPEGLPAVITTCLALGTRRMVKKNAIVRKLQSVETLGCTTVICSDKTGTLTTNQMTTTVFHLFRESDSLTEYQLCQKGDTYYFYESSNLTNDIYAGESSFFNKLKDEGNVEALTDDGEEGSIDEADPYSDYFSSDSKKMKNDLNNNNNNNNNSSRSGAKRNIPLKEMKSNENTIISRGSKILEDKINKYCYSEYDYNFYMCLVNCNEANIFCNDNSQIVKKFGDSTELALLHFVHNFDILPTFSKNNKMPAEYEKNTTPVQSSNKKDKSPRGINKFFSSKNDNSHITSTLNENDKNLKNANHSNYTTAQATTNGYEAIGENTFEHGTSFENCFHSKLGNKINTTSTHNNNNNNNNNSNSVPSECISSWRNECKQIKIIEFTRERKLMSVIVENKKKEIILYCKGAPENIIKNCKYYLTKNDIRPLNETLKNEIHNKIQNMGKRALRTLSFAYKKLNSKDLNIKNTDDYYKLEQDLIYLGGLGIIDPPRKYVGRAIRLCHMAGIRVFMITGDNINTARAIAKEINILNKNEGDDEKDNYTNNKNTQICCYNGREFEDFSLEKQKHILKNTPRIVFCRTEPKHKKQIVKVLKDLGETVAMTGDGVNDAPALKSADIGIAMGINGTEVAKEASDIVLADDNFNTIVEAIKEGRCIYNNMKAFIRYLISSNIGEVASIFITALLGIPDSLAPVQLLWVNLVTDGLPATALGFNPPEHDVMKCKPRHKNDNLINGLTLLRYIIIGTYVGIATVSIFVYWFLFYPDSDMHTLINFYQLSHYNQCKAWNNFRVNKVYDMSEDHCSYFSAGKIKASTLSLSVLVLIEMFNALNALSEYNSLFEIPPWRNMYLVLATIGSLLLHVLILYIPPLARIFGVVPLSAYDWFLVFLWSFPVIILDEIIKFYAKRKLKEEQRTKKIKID
Assay: Yeast whole-cell assay, PfATP6 S769N mutant
Format: cell-based
Conditions: read-out: IC50 (mean ± SD)
Procedure: Yeast transformations were performed using the method described by Gietz and Schiestl ([48]), and transformants were selected by an uracil auxotrophic marker. Transformations were confirmed by colony PCR. Both K667 and K667Δpdr5::HIS were transformed with the following plasmids: pUGpd plasmid as a vector-only control (derived from pRS316 [49]); br434 plasmid (derived from pRS316 [50]) containing the SERCA1a coding region from rabbit skeletal fast-twitch muscle (pbr434-SERCA1a); and pUGpd containing the yeast-optimized coding region of PfATP6 from Plasmodium falciparum (pUGpd-PfATP6). Site-directed mutagenesis was performed on the SERCA1a coding region to produce the mutation E255L in the protein. Mutations were also introduced into the PfATP6 coding region to produce mutations L263E, A623E, and S769N and the double mutation A623E/S769N ([13]).
The screening assay used here was developed from the protocol used by Pulcini et al. ([13]). […] The optimal calcium concentration was periodically monitored and, if necessary, adjusted using a calcium concentration range of 10 to 30 mM. […] The yeast growth was estimated from the absorbance at 620 nm in a Tecan plate reader. […] The data collected were analyzed using GraphPad Prism v9.0 (GraphPad software, San Diego, CA, U.S.A).

Q: With CC(=O)C1=C(O)[C@@H]2[C@H]3c4c[nH]c5cccc(c45)C[C@H]3C(C)(C)N2C1=O [CPA, cyclopiazonic acid] as the molecule, how does the IC50 read?
A: 6.49 µM

— PMC9112895, “Selective Inhibition of Plasmodium falciparum ATPase 6 by Artemisinins and Identification of New Classes of Inhibitors after Expression in Yeast” (Antimicrobial Agents and Chemotherapy, 2022)
